Measured values taken from the supplement of paper PMC10307832.

What was measured:
Assay in all cases: relative viability (nuclei count vs DMSO), 5 days (fraction); higher = more cells survive
SW 1573 = test system: SW 1573
Method in brief: (§1)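 Lung cancer cell lines in 1536-well plates were dosed by pin tool the day after seeding, either with one drug alone or with a fixed anchor-drug dose plus five library-drug doses (not always all listed) in √10 steps. After 5 days, cells were fixed and their nuclei stained in one step (final 0.05% Triton X-100, 1% formaldehyde, 1 ug/ml Hoechst), then counted on 4× images. Relative viability is the nuclei count in treated wells divided by that in vehicle wells. Values are medians of duplicate plates.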

LU99A = test system: LU99A
Method in brief: as §1

LC-2-ad = test system: LC-2-ad
Method in brief: as §1

NCI-H650 = test system: NCI-H650
Method in brief: as §1

NCI-H1437 = test system: NCI-H1437
Method in brief: as §1

NCI-H1734 = test system: NCI-H1734
Method in brief: as §1

SW 900 = test system: SW 900
Method in brief: as §1

NCI-H2023 = test system: NCI-H2023
Method in brief: as §1

BEN = test system: BEN
Method in brief: as §1

NCI-H2126 = test system: NCI-H2126
Method in brief: as §1

NCI-H2170 = test system: NCI-H2170
Method in brief: as §1

NCI-H727 = test system: NCI-H727
Method in brief: as §1

EMC-BAC-2 = test system: EMC-BAC-2
Method in brief: as §1

NCI-H1915 = test system: NCI-H1915
Method in brief: as §1

NCI-H1755 = test system: NCI-H1755
Method in brief: as §1

NCI-H3122 = test system: NCI-H3122
Method in brief: as §1

NCI-H358 = test system: NCI-H358
Method in brief: as §1

HOP-62 = test system: HOP-62
Method in brief: as §1

NCI-H1563 = test system: NCI-H1563
Method in brief: as §1

HCC-15 = test system: HCC-15
Method in brief: as §1

NCI-H1395 = test system: NCI-H1395
Method in brief: as §1

## CCNC(=O)c1noc(-c2cc(C(C)C)c(O)cc2O)c1-c1ccc(CN2CCOCC2)cc1 [Luminespib] + Cc1nc(Nc2ncc(C(=O)Nc3c(C)cccc3Cl)s2)cc(N2CCN(CCO)CC2)n1 [Dasatinib] (partner 0.075 µM)
SW 1573; first compound 0.002 µM
  relative viability: 0.506
SW 1573; first compound 0.006325 µM
  relative viability: 0.532
SW 1573; first compound 0.02 µM
  relative viability: 0.13
SW 1573; first compound 0.06325 µM
  relative viability: 0.0551
SW 1573; first compound 0.2 µM
  relative viability: 0.0703
LU99A; first compound 0.002 µM
  relative viability: 0.658
LU99A; first compound 0.006325 µM
  relative viability: 0.406
LU99A; first compound 0.02 µM
  relative viability: 0.377
LU99A; first compound 0.06325 µM
  relative viability: 0.0593
LU99A; first compound 0.2 µM
  relative viability: 0.0775
LC-2-ad; first compound 0.002 µM
  relative viability: 0.583
LC-2-ad; first compound 0.006325 µM
  relative viability: 0.567
LC-2-ad; first compound 0.02 µM
  relative viability: 0.447
LC-2-ad; first compound 0.06325 µM
  relative viability: 0.142
LC-2-ad; first compound 0.2 µM
  relative viability: 0.16
NCI-H650; first compound 0.002 µM
  relative viability: 0.468
NCI-H650; first compound 0.006325 µM
  relative viability: 0.417
NCI-H650; first compound 0.02 µM
  relative viability: 0.359
NCI-H650; first compound 0.06325 µM
  relative viability: 0.112
NCI-H650; first compound 0.2 µM
  relative viability: 0.115
NCI-H1437; first compound 0.002 µM
  relative viability: 0.421
NCI-H1437; first compound 0.006325 µM
  relative viability: 0.316
NCI-H1437; first compound 0.02 µM
  relative viability: 0.255
NCI-H1437; first compound 0.06325 µM
  relative viability: 0.252
NCI-H1437; first compound 0.2 µM
  relative viability: 0.126
NCI-H1734; first compound 0.002 µM
  relative viability: 0.552
NCI-H1734; first compound 0.006325 µM
  relative viability: 0.419
NCI-H1734; first compound 0.02 µM
  relative viability: 0.314
NCI-H1734; first compound 0.06325 µM
  relative viability: 0.117
NCI-H1734; first compound 0.2 µM
  relative viability: 0.106
SW 900; first compound 0.002 µM
  relative viability: 0.741
SW 900; first compound 0.006325 µM
  relative viability: 0.722
SW 900; first compound 0.02 µM
  relative viability: 0.227
SW 900; first compound 0.06325 µM
  relative viability: 0.0874
SW 900; first compound 0.2 µM
  relative viability: 0.109
NCI-H2023; first compound 0.002 µM
  relative viability: 0.589
NCI-H2023; first compound 0.006325 µM
  relative viability: 0.525
NCI-H2023; first compound 0.02 µM
  relative viability: 0.198
NCI-H2023; first compound 0.06325 µM
  relative viability: 0.0548
NCI-H2023; first compound 0.2 µM
  relative viability: 0.0529
BEN; first compound 0.002 µM
  relative viability: 0.323
BEN; first compound 0.006325 µM
  relative viability: 0.303
BEN; first compound 0.02 µM
  relative viability: 0.263
BEN; first compound 0.06325 µM
  relative viability: 0.334
BEN; first compound 0.2 µM
  relative viability: 0.192
NCI-H2126; first compound 0.002 µM
  relative viability: 0.631
NCI-H2126; first compound 0.006325 µM
  relative viability: 0.606
NCI-H2126; first compound 0.02 µM
  relative viability: 0.399
NCI-H2126; first compound 0.06325 µM
  relative viability: 0.206
NCI-H2126; first compound 0.2 µM
  relative viability: 0.221
NCI-H2170; first compound 0.002 µM
  relative viability: 0.503
NCI-H2170; first compound 0.006325 µM
  relative viability: 0.578
NCI-H2170; first compound 0.02 µM
  relative viability: 0.308
NCI-H2170; first compound 0.06325 µM
  relative viability: 0.163
NCI-H2170; first compound 0.2 µM
  relative viability: 0.106
NCI-H727; first compound 0.002 µM
  relative viability: 0.358
NCI-H727; first compound 0.006325 µM
  relative viability: 0.331
NCI-H727; first compound 0.02 µM
  relative viability: 0.257
NCI-H727; first compound 0.06325 µM
  relative viability: 0.278
NCI-H727; first compound 0.2 µM
  relative viability: 0.304
EMC-BAC-2; first compound 0.002 µM
  relative viability: 0.355
EMC-BAC-2; first compound 0.006325 µM
  relative viability: 0.351
EMC-BAC-2; first compound 0.02 µM
  relative viability: 0.312
EMC-BAC-2; first compound 0.06325 µM
  relative viability: 0.395
EMC-BAC-2; first compound 0.2 µM
  relative viability: 0.172
NCI-H1915; first compound 0.002 µM
  relative viability: 0.311
NCI-H1915; first compound 0.006325 µM
  relative viability: 0.299
NCI-H1915; first compound 0.02 µM
  relative viability: 0.234
NCI-H1915; first compound 0.06325 µM
  relative viability: 0.236
NCI-H1915; first compound 0.2 µM
  relative viability: 0.0739
NCI-H1755; first compound 0.002 µM
  relative viability: 0.394
NCI-H1755; first compound 0.006325 µM
  relative viability: 0.472
NCI-H1755; first compound 0.02 µM
  relative viability: 0.455
NCI-H1755; first compound 0.06325 µM
  relative viability: 0.258
NCI-H1755; first compound 0.2 µM
  relative viability: 0.119
NCI-H3122; first compound 0.002 µM
  relative viability: 0.83
NCI-H3122; first compound 0.006325 µM
  relative viability: 0.812
NCI-H3122; first compound 0.02 µM
  relative viability: 0.0669
NCI-H3122; first compound 0.06325 µM
  relative viability: 0.0573
NCI-H3122; first compound 0.2 µM
  relative viability: 0.0548
NCI-H358; first compound 0.002 µM
  relative viability: 0.149
NCI-H358; first compound 0.006325 µM
  relative viability: 0.164
NCI-H358; first compound 0.02 µM
  relative viability: 0.0956
NCI-H358; first compound 0.06325 µM
  relative viability: 0.0558
NCI-H358; first compound 0.2 µM
  relative viability: 0.0633
HOP-62; first compound 0.002 µM
  relative viability: 0.734
HOP-62; first compound 0.006325 µM
  relative viability: 0.611
HOP-62; first compound 0.02 µM
  relative viability: 0.603
HOP-62; first compound 0.06325 µM
  relative viability: 0.408
HOP-62; first compound 0.2 µM
  relative viability: 0.102
NCI-H1563; first compound 0.002 µM
  relative viability: 0.453
NCI-H1563; first compound 0.006325 µM
  relative viability: 0.476
NCI-H1563; first compound 0.02 µM
  relative viability: 0.394
NCI-H1563; first compound 0.06325 µM
  relative viability: 0.353
NCI-H1563; first compound 0.2 µM
  relative viability: 0.341
HCC-15; first compound 0.002 µM
  relative viability: 0.708
HCC-15; first compound 0.006325 µM
  relative viability: 0.603
HCC-15; first compound 0.02 µM
  relative viability: 0.61
HCC-15; first compound 0.06325 µM
  relative viability: 0.084
HCC-15; first compound 0.2 µM
  relative viability: 0.0846
NCI-H1395; first compound 0.002 µM
  relative viability: 0.418
NCI-H1395; first compound 0.006325 µM
  relative viability: 0.386
NCI-H1395; first compound 0.02 µM
  relative viability: 0.366
NCI-H1395; first compound 0.06325 µM
  relative viability: 0.33
NCI-H1395; first compound 0.2 µM
  relative viability: 0.309
